{
  "source": "patent US20020192274A1",
  "about": "“pH sensitive liposomal drug delivery” (priority 2001, published 2002)",
  "key": {"TNF-α [1]": {"test_system": "TNF-α", "assay": "LPS-induced TNF-α secretion by liver slices after in vivo ASO administration (ELISA)", "design": "species or system rat", "conditions": "for inhibition of LPS-induced TNF-α production in liver slices: vs empty liposomes", "experimental": "FIG. 4. In vivo efficacy of ASO TJU-2755 (SEQ. ID. NO: 1) against TNF-α in the liver: Effect of duration post-injection. Rats are intravenously injected with pH-sensitive liposomes encapsulated with TJU-2755 (1.5-1.75 mg/Kg body wt). At different times (24, 48 and 72 h) after ASO administration, LPS (50 μg/Kg body weight for 90 minutes) is administered intravenously (i.v.) and the animals are sacrificed 90 min after this challenge. Liver is excised, slices prepared and incubated for 2 h (infra). The amount of TNF-α released into the medium is measured by ELISA. The TNF-α values (bars) from the ASO-treated animals are normalized to control values (control=100) obtained from body weight-matched rats treated similarly except that they are injected with “empty” liposomes. Values indicated are means ±S.E. of (n) determinations. Number of animals, 24 h, n=3; 48 h, n=4, 72 h, n=3. * p<0.05 (vs Control).\nFIG. 5. In vivo efficacy of ASO TJU-2755 (SEQ. ID. NO: 1) against TNF-α in the liver: Effect of multiple injections. Rats are injected with either one or two daily doses of ASO (1.5-1.75 mg/Kg body wt) encapsulated liposomes. […] The amount of TNF-α produced by liver slices is determined as described in legend to FIG. 4 (supra). Bars indicate the amount of TNF-α produced by ASO-treated animals, expressed as percent of controls injected with “empty” liposomes and are the means ±S.E. of n=4 for single dose and n=7 for two doses. *p<0.05, **p<0.01 vs control). The absolute values (Mean) of TNF-α for control and TNF-2755-treated livers (for two daily doses) were 17,748 and 7,500 pg/g liver, respectively.\nFollowing the in vivo administration of LPS, the production of TNF-α in the liver is assessed by measuring the amount of TNF-α secreted by liver slices. Liver slices are prepared and incubated in culture medium according to the procedure described by Videla and Israel (Videla, L., Israel, Y., Biochem J. 118: 275-281, 1970) with modifications, which include the addition of insulin and fetal calf serum to the culture medium. Briefly, liver slices of uniform thickness (10×4×0.4 mm) are prepared from the mid lobe and initially rinsed in ice-cold William's E medium. The slices (2 slices per dish) are transferred to culture dishes (35 mm) containing 2 ml of fresh medium (90% William's E, 10% fetal calf serum and 2 units of insulin/100 ml) and incubated at 37° C. for 2 h. The amount of TNF-α released into the medium is measured (infra).\n(§1) ELISA is conducted by using Cytoscreen KRC3012 kits (Biosource, Camarillo, Calif.) according to the manufacturer's specifications. Supernatants containing high TNF-α levels are diluted prior to the assay to assure assay results within the standard curve.\n(§2) Rats are injected intravenously with two daily doses (1.5 mg/Kg body wt.) of ASO TJU-2755 (SEQ. ID. NO: 1) encapsulated in pH-stable liposomes and challenged with LPS (50 μg/Kg body wt.) at 48 h post injection. Animals are sacrificed 90 minutes post-LPS. The amount of TNF-α in plasma, as well as that secreted by liver slices, is determined exactly as described for pH-sensitive liposomes (supra) and legends to FIG. 4 and FIG. 5. Body-weight matched rats injected with two doses of “empty” liposomes and challenged similarly with LPS constituted the control group. All TNF-α values are normalized to the corresponding control groups (=100). Values are expressed as mean ±S.E of (n) determinations."}, "TNF-α [2]": {"test_system": "TNF-α", "assay": "Plasma TNF-α after LPS challenge following in vivo ASO administration (ELISA)", "design": "species or system rat", "experimental": "FIG. 6. […] Rats are injected with either one (n=3), two (n=8) or three (n=1) daily doses of TJU-2755 (SEQ. ID. NO: 1) and administered LPS (50 μg/Kg body wt.) at 48 h after the last injection of the antisense formulation as described in legend to FIG. 5. […] Plasma TNF-α is determined by ELISA. Bars indicate values from ASO-treated animals expressed as percent of corresponding controls (animals dosed with “empty liposomes”) and are the means ±S.E of (n) determinations. ***p<0.001 between rats injected two daily doses of ASO and controls. The absolute (Mean) values of TNF-α for control and TJU-2755 (SEQ. ID. NO: 1)-treated plasma samples (for two daily doses) were 34,375 and 9,731 (pg/ml plasma) respectively.\nas §1, §2"}, "TNF-α mRNA": {"test_system": "TNF-α mRNA", "assay": "Tissue levels of TNF-α mRNA by Northern hybridization", "type": "in vivo, rat", "conditions": "pH-sensitive liposomes, two daily doses 1.5 mg/Kg, LPS 48 h post ASO, normalized to GAPDH, vs empty liposomes", "experimental": "FIG. 8. Effect of ASO TJU-2755 (SEQ. ID. NO: 1) in vivo on TNF-α mRNA. Rats are injected with two daily doses (1.5 mg/Kg body wt.) of ASO and injected with LPS (50 μg/Kg body wt.) 48 h post ASO administration as described in legend to FIG. 5. Liver (n=5) and spleen (n=4) are processed for the extraction of mRNA fractions. Steady-state levels of TNF-α mRNA are determined by Northern hybridization and normalized to the levels of GAPDH mRNA. Bars indicate mRNA (Means ±S.E) of (n) values from ASO-treated samples, expressed as percent of control values derived from rats treated with “empty” liposomes. *p<0.05, **p<0.01 (Vs control).\nLiver and spleen samples (≈100 mg) are homogenized in 3 volumes of cold TRI Reagent (Molecular Research Center, Inc.). […] The intactness of total RNA is measured by agarose (1%) gel electrophoresis by visualizing the intactness of ribosomal RNA (28S, 18S). […] The purity of the isolated mRNA is monitored by analyzing the absorption ratios of 260 to 280 (nm), which always ranged from 1.8-2.0.\nSamples of mRNA are run on 1% agarose gel electrophoresis, vacuum transferred (BIORAD Model 785 Vacuum Blotter) onto a nitrocellulose membrane (Amersham), and crosslinked (Statagene UV Stratalinker 2400). […] The autoradiograms are quantitated using an ultrascan laser densitometer. […]"}, "TNF-α [3]": {"test_system": "TNF-α", "conditions": "primary Kupffer cells ex vivo; cited from earlier work"}, "[4]": {"conditions": "pH-stable liposomes, two daily doses 1.5 mg/Kg i.v., LPS at 48 h, mean ± S.E"}},
  "data": [
    {"substance": "TJU-2755: phosphorothioate 21-mer antisense oligonucleotide 5′-TGATCCACTCCCCCCTCCACT-3′, complementary to the 3′-untranslated region of rat TNF-α mRNA (all phosphorothioate, sugars by position and methylation of C not given here)", "values": [
      {"measurement": "inhibitory effect on LPS-induced TNF-α production", "setting": "TNF-α [1]; ASO delivered with pH-stable liposomes (liver and plasma, Table 1)", "value": "no inhibitory effect"},
      {"measurement": "inhibition of LPS-induced TNF-α production in liver slices", "setting": "TNF-α [1]; pH-sensitive liposomes, single i.v. dose, LPS 48 h post injection", "value": "~30", "unit": "%"},
      {"measurement": "inhibition of LPS-induced TNF-α production in liver slices", "setting": "TNF-α [1]; pH-sensitive liposomes, two daily doses, LPS 48 h after last injection", "value": 50, "unit": "%"},
      {"measurement": "TNF-α produced by liver slices, absolute mean", "setting": "TNF-α [1]; pH-sensitive liposomes, two daily doses, control 17,748", "value": "7,500 pg/g liver"},
      {"measurement": "TNF-α (%) liver, normalized to control (=100)", "setting": "TNF-α [1]; [4]", "value": "103 ± 23", "unit": "%"},
      {"measurement": "reduction in plasma TNF-α levels", "setting": "TNF-α [2]; pH-sensitive liposomes, 2 doses, LPS 48 h after last injection, vs empty liposomes", "value": 68, "unit": "%"},
      {"measurement": "plasma TNF-α, absolute mean", "setting": "TNF-α [2]; pH-sensitive liposomes, two daily doses, control 34,375", "value": "9,731 pg/ml plasma"},
      {"measurement": "TNF-α (%) plasma, normalized to control (=100)", "setting": "TNF-α [2]; [4]", "value": "93 ± 28", "unit": "%"},
      {"measurement": "reduction in TNF-α mRNA levels, spleen", "setting": "TNF-α mRNA", "value": 36.5, "unit": "%"},
      {"measurement": "reduction in steady-state levels of TNF-α mRNA, liver", "setting": "TNF-α mRNA", "value": 35, "unit": "%"},
      {"measurement": "inhibition of LPS-stimulated TNF-α production", "setting": "TNF-α [3]", "value": "> 90", "unit": "%"}
    ]}
  ]
}
